Experimental data published in patent US20220175931A1, “OSMOTIC PRESSURE REGULATOR FOR PERITONEAL DIALYSATE CONTAINING D-ALLOSE AND/OR D-ALLULOSE” (NATIONAL UNIVERSITY CORPORATION KAGAWA UNIVERSITY, priority 2019, published 2022).
In brackets after ≈: the same amount, converted by molar mass. Entries after “also recorded” stand apart in the source; their conditions may differ. Where two headings read alike, the source gives them in different places.

Legend:
Corynebacterium = assay: MIC test, agar plate dilution method; type: cell-based, Corynebacterium striatum
Experimental: (§1) In accordance with the agar plate dilution method of the Japanese Society of Chemotherapy (1981), the minimum inhibitory concentration of a sample was determined.
(§2) Agar plates containing a sample at predetermined concentrations were smeared with a test bacterial suspension and were incubated, and then the minimum concentration at which bacterial growth was inhibited was determined as the minimum inhibitory concentration.
(§3) A 10-fold diluted solution of a sample was prepared with purified water and was added to an agar medium at a 1/10 volume.
(§4) From the upper limit concentration, the concentration was determined by serial 2-fold dilution to about 100 μg/ml.
(§5) (1) A 70% solution was prepared (14 g was diluted in a 20-ml measuring flask).
(§6) (2) The 70% solution was diluted by 2-fold dilution. Seven to eight steps.
(§7) (3) A 1/9 volume of each solution was added to an agar medium, and the mixture was poured in a petri dish and solidified (the sample concentration was 7% or more in the agar).
(§8) A liquid culture medium containing bacteria was incubated for 16 to 20 hours, and a prepared culture medium having a bacterial concentration of about 10^6/ml was used.

Enterococci = assay: MIC test, agar plate dilution method; type: cell-based, Enterococcus faecalis
Experimental: as §1, §2, §3, §4, §5, §6, §7, §8

E. coli = assay: MIC test, agar plate dilution method; type: cell-based, Escherichia coli
Experimental: as §1, §2, §3, §4, §5, §6, §7, §8

Staphylococcus aureus = assay: MIC test, agar plate dilution method; type: cell-based, Staphylococcus aureus subsp. (MSSA)
Experimental: as §1, §2, §3, §4, §5, §6, §7, §8

MRSA = assay: MIC test, agar plate dilution method; type: cell-based, Staphylococcus aureus (MRSA)
Experimental: as §1, §2, §3, §4, §5, §6, §7, §8

Pseudomonas aeruginosa = assay: MIC test, agar plate dilution method; type: cell-based
Experimental: as §1, §2, §3, §4, §5, §6, §7, §8

[1] = tested on: Staphylococcus epidermidis; assay: MIC test, agar plate dilution method; type: cell-based
Experimental: as §1, §2, §3, §4, §5, §6, §7, §8

male SD rats = assay: Blood glucose level after intraperitoneal administration of D-allulose dialysate, normal rats, Test Example 3; type: in vivo, rat; details: PDF-based, vs control group
Description: The number of dialysis patients due to end-stage renal failure has been increasing; diabetic nephropathy is the main basic disease of end-stage renal failure; peritoneal dialysis patients can work during the day and has high QOL; peritoneal dialysis uses an osmotic pressure difference by glucose to remove water and toxins; and glucose in a peritoneal dialysate is absorbed through the peritoneum into the body to increase the blood glucose level, and this may worsen prognosis of a dialysis patient with diabetes. Considering the above circumstances, Kagawa University is only the organization capable of producing all rare sugars in the world and can research the rare sugar optimum for an intended dialysate.
The test example of D-allulose includes a substitution example and an addition example. In the substitution example, D-allose in FIG. 7 was substituted with D-allulose.
To male SD rats, a control solution as a solution in which a peritoneal dialysis fluid (PDF) was mixed with glucose, a 10% substitution solution as a solution in which 10% (by weight) of glucose to be mixed was substituted with D-allulose, or a 10% load solution as a solution in which D-allulose was added to the control solution in an amount corresponding to 10% by weight of glucose was intraperitoneally administered in the same volume, and blood glucose levels were determined over time.

test bacteria = assay: MIC test, summary statements for the test bacteria as a whole; type: cell-based
Experimental: as §1, §2
Drug concentration 128 μg/ml grown bacteria A+ B− C−
Drug concentration 64 μg/ml grown bacteria A+ B+ C−
Drug concentration 32 μg/ml grown bacteria A+ B+ C+

normal rats (SD rats) [2] = assay: Blood glucose level after intraperitoneal administration of peritoneal dialysate, normal rat models, Test Example 1; type: in vivo
Experimental: As shown in the protocol in FIG. 1, normal rats (6-week-old male SD rats, a weight of 155 to 170 g/body) were fasted for 24 hours, then the weights and fasting blood glucose levels were determined, and the rats were randomly separated into four groups.
As the administration solutions, a solution containing only glucose at a concentration of 4%, a solution having a sugar concentration of 4% in which D-allose was contained at 5% and glucose was contained at 95%, a solution having a sugar concentration of 4% in which D-allose was contained at 10% and glucose was contained at 90%, and a solution having a sugar concentration of 4% in which D-allose was contained at 25% were prepared, and each osmotic pressure of the four solutions was determined.
(§9) For the normal rats, blood samples were collected from the tail veins, and the blood glucose (blood sugar) levels were determined by using a commercially available blood glucose meter.
The results were subjected to Tukey-Kramer test by using an analysis software, JMP, and no significant difference was observed.

[3] = tested on: diabetic model rats (SDT fatty rats); assay: Blood glucose level after intraperitoneal administration of peritoneal dialysate, diabetic model rats, Test Example 1; type: in vivo, rat
Experimental: (§10) As shown in the protocol in FIG. 4, 12- to 13-week-old male SDT fatty rats (a weight of 360 to 460 g) as diabetic model rats were fasted for 24 hours, then the weights and fasting blood glucose levels were determined, and the rats were randomly separated into two groups. As the administration solutions, a solution containing only glucose at a concentration of 4%, a solution having a sugar concentration of 4% in which D-allose was contained at 10% and glucose was contained at 90% were prepared, and each osmotic pressure of the two solutions was determined.
(§11) The diabetic model rats had more weights and higher fasting blood glucose levels than those of the normal rats. Blood samples were difficult to collect from the tails of the diabetic rats and thus were collected from the jugular vein, and blood glucose levels were determined by using the same blood glucose meter as above. The model rats had diabetes, and thus the blood glucose level increase was slow as compared with the normal rats.

normal rats (SD rats) [4] = assay: Blood glucose level after intraperitoneal administration of PDF-based dialysate, normal rat models, Test Example 2; type: in vivo; details: PDF-based solutions
Experimental: Next, a peritoneal dialysis fluid (PDF) was prepared, solutions containing glucose in a constant total amount of (0.432 g) were prepared, and D-allose was added to the solution at a predetermined ratio to give the following two peritoneal dialysates having a sugar concentration of 4% by weight and an osmotic pressure of 500 mOsm/L.
as §10, with “7, normal rats (6-week-old” for “4, 12- to 13-week-old”, “SD rats, a” for “SDT fatty rats (a”, “155” for “360”, “175 g/body)” for “460 g) as diabetic model rats”, “4% and” for “4%,”, “pressure” for “pressure of the two solutions”
as §9
FIG. 8 show the test result of blood glucose level of the two groups of a group of the solution containing only glucose at a concentration of 4% and a group of the solution having a sugar concentration of 4% in which D-allose was contained at 10% and glucose was contained at 90%.

[5] = tested on: diabetic model rats (SDT fatty rats); assay: Blood glucose level after intraperitoneal administration of PDF-based dialysate, diabetic model rats, Test Example 2; type: in vivo, rat; details: PDF-based solutions
Experimental: As shown in the protocol in FIG. 9, 35- to 42-week-old male SDT fatty rats (a weight of 380 to 490 g) as diabetic model rats were fasted for 24 hours, then the weights and fasting blood glucose levels were determined, and the rats were randomly separated into two groups. As the administration solutions, the original solution was changed to PDF, and a solution containing only glucose as the sugar at a concentration of 4%, a solution having a sugar concentration of 4% in which D-allose was contained at 10% and glucose was contained at 90% were prepared, and each osmotic pressure of the two solutions was determined.
FIG. 10 show the test result of blood glucose level of the two groups of a group of the solution containing only glucose at a concentration of 4% and a group of the solution having a sugar concentration of 4% in which D-allose was contained at 10% and glucose was contained at 90%.
as §11, with “vein, and the blood glucose” for “vein, and blood glucose”

[6] = Enterococcus faecalis, read-out: MIC
[7] = Escherichia coli, read-out: MIC
[8] = Staphylococcus aureus, read-out: MIC
[9] = summary of results, drug concentration 128, 64, 32 μg/ml, bacterium not named
[10] = intraperitoneal, 0, 2, 4, and 6 hours

SMILES | MIC (Corynebacterium; read-out: MIC) [mg/mL] | MIC (Enterococci; [6]) [mg/mL] | MIC (E. coli; [7]) [mg/mL] | MIC (Staphylococcus aureus; read-out: MIC) [mg/mL] | MIC (MRSA; [8]) [mg/mL] | MIC (Pseudomonas aeruginosa; read-out: MIC) [mg/mL] | MIC ([1]; read-out: MIC) [mg/mL] | MIC (Corynebacterium) [mg/mL] | MIC (Enterococci) [mg/mL] | MIC (E. coli) [mg/mL] | MIC (Staphylococcus aureus) [mg/mL] | MIC (MRSA) [mg/mL] | MIC (Pseudomonas aeruginosa) [mg/mL] | MIC [1] [mg/mL] | MIC (test bacteria; [9]) [mg/mL] | other results
O=C[C@H](O)[C@@H](O)[C@H](O)[C@H](O)CO [Sample 1), D-glucose] | > 70 | > 70 | > 70 | > 70 | > 70 | > 70 | > 70 |  |  |  |  |  |  |  |  | 
O=C(CO)[C@@H](O)[C@H](O)[C@H](O)CO [Sample 2), D-Fructose] | > 70 | > 70 | > 70 | > 70 | > 70 | > 70 | > 70 |  |  |  |  |  |  |  |  | 
O=C(CO)[C@H](O)[C@H](O)[C@H](O)CO [Sample 3), D-allulose] |  |  |  |  |  |  |  | >70 | >70 | >70 | >70 | >70 | >70 | >70 | > 0.128 | blood glucose level increase (BS) (male SD rats): significantly suppressed
O=C(CO)[C@@H](O)[C@@H](O)[C@@H](O)CO [Sample 4), L-allulose] |  |  |  |  |  |  |  | >70 | >70 | >70 | >70 | >70 | >70 | >70 | 0.128 (≈ 0.71 mM) | 
O=C[C@H](O)[C@H](O)[C@H](O)[C@H](O)CO [Sample 5), D-allose] | > 70 | > 70 | > 70 | > 70 | > 70 | > 70 | 70 (≈ 389 mM) |  |  |  |  |  |  |  |  | AUC of blood glucose level (normal rats (SD rats) [2]; Tukey-Kramer test): significant declining trend; blood glucose level increase (time course) (normal rats (SD rats) [2]; fasted 24 hours, vs glucose-only solution): increase suppressive effect with a significant difference; also recorded: suppressed; blood glucose level increase [3, 10]: suppressed; AUC of blood glucose level ([3]; intraperitoneal, t-test): suppressive effect on the blood glucose level increase with a significant difference; blood glucose level increase (normal rats (SD rats) [4]): suppressed; blood glucose level increase [5, 10]: suppressed; AUC of blood glucose level ([5]; t-test): suppressive effect on the blood glucose level increase with a significant difference; MIC (test bacteria): 0.064 mg/mL (≈ 0.355 mM)
